Measurements: patent US20170312260A1 (LAUNX BIOMEDICAL CO., LTD., priority 2014, published 2017)

System: cancers cell lines
Assay: Inhibition test on all kinds of cancer cell lines (overall statement)
Type: cell-based
Details: several / various cancer cell lines, Table 18, FIG. 1
Procedure: The cell numbers were counted and reseed as 2×10^6 in cell culture plate/flask. Then, the culture medium were added to a volume of 10 ml, and the cells were cultured for 2-3 days. Then, the cells were suspended for loading into 96-well plates. The number of cells was 3000 and the volume of the culture medium was 100 μl each well.
Removing the original culture medium from 96-well plate. Then add 100 μl of commercially drug at a concentration of 10 μM per well. After 72 hours, add the diluted WST-1 reagent to the well with 100 μl/well, and the diluted WST-1 reagent was acquired from the dilution of 9:1 medium and WST-1 stock reagent. Finally, the total volume of each well was 200 μl/well. Culture the 96-well plate at 37° C. for 30 to 90 minutes. Detecting and calculate the survival rate of each cancer cells with an ELISA reader at OD450 nm.
As a result in the experiments of the present invention.

## Fc1ccc([C@@H]2CCNC[C@H]2COc2ccc3c(c2)OCO3)cc1 [Paroxetine]
  inhibitory effect on cancer cell lines (in words): significant inhibitory effect
